19 compounds from PubChem BioAssay (NCI) can be followed below.

The structures appear in SMILES notation.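 These data come from cells grown in 96-well plates and exposed to compound for 48 hours at five concentrations. Here, GI50 denotes the concentration required for 50% inhibition of growth. At the TGI there is no net growth.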

One assay has as its system SK-MEL-5 melanoma. As to the kind of experiment: NCI-60 cell line screen, 48 h.
Turning to `CCN(CC)CCOc1ccc(/C=C2\CC3C4CC=C5C[C@@H](O)CC[C@]5(C)C4CC[C@]3(C)C2=O)cc1OC` (stereo partly specified), the GI50 is 6.58 µM and the TGI is 22.6 µM.

As to `O=c1c2ccccc2sc2cccc(NCCCN3CCN(CCCNc4cccc5sc6ccccc6c(=O)c45)CC3)c12`, the TGI is above 100 µM.

For `Cc1cn2c(/C=C3\C(=O)Nc4ccc(O)cc43)c(-c3ccc(Cl)cc3)nc2s1`, the GI50 was 10.1 µM and the TGI was 25.2 µM.

In turn, `CC1=CC(=O)[C@@H](O)[C@]2(C)[C@H]3[C@@]4(O)OC[C@]35[C@H]([C@@H](C)[C@H]4O)[C@@H](O)C(=O)O[C@@H]5C[C@@H]12` had a TGI of 0.369 µM.

`Nc1nc(N)c(N=Nc2ccc([As](=O)(O)O)cc2)c(=O)[nH]1`: the TGI is above 100 µM.

On to `CCOC(=O)C(=Cc1cccc(Cl)c1)C(=O)OCC`, for which the GI50 is 1.83 µM and the TGI is 3.35 µM.

On to `C=CC(=O)N1CCC(C2CCNc3c(C(N)=O)c(-c4ccc(Oc5ccccc5)cc4)nn32)CC1` (stereo unspecified), for which the GI50 is 10.6 µM and the TGI was 22.9 µM.

Regarding `O=c1cc2oc3cc(O)c(O)cc3c(-c3ccccc3O)c-2cc1O`, the GI50 was 19.4 µM and the TGI was above 100 µM.

Consider `COc1ccccc1N1CCN(CCCn2c(=O)c3c(OC)nc(C)cc3c(=O)n2-c2ccccc2)CC1`, for which the GI50 was above 100 µM and the TGI is above 100 µM.

`N#Cc1c(-c2ccc(F)cc2)c(-c2ccc(F)cc2)nn(CCO)c1=O`: the TGI was above 4.64 µM.

A further assay concerns HOP-92 NSCLC. The assay is described as follows: NCI-60 cell line screen, 48 h.
In the case of `Nc1nccc2c1ccn2-c1ccc(NC(=O)c2ccc(N3CCOCC3)c(C(F)(F)F)c2)cc1`, the GI50 is 0.418 µM and the TGI came out at 3.84 µM.

Compound `Cc1[nH]c2ccccc2c1-c1cc(-c2cc(-c3c(C)[nH]c4ccccc34)on2)no1` gave a TGI above 100 µM.

With `Cn1cnc([N+](=O)[O-])c1S(=O)(=O)Oc1ccccc1`, the GI50 is 5.85 µM and the TGI worked out at 19.1 µM.

For the compound `COc1cc(C2c3cc4c(cc3C(O)C(CO)C2CO)OCO4)cc(OC)c1OC` (stereo unspecified), the GI50 is above 100 µM and the TGI is above 100 µM.

Regarding `CCCNC(=S)/N=C/c1c(O)c2ccccc2[nH]c1=O`, the TGI is above 100 µM.

On to `COC12C=C/C(=C(/C(=O)OCc3ccncc3)C(=O)CCCCCCCCC3(OC)C=C/C(=C(/C(=O)OCc4ccncc4)C(=O)CCCCCCCC1)O3)O2`, for which the GI50 was 1.23 µM and the TGI is 2.36 µM.

For the compound `Cc1csc(Nc2nc(-c3cccc(Br)c3)nc(C(Cl)(Cl)Cl)n2)n1`, the GI50 is 1.1 µM and the TGI was determined as 6.16 µM.

As for `C1CSCCSCCS1`, the TGI is above 100 µM.

Regarding `CCN(CC)CCOc1ccc(/C=C2\CC3C4CC=C5C[C@@H](O)CC[C@]5(C)C4CC[C@]3(C)C2=O)cc1OC` (stereo partly specified), the GI50 is 1.45 µM and the TGI came out at 32.2 µM.

`CC1=CC(=O)[C@@H](O)[C@]2(C)[C@H]3[C@@]4(O)OC[C@]35[C@H]([C@@H](C)[C@H]4O)[C@@H](O)C(=O)O[C@@H]5C[C@@H]12` showed a TGI of 2.51 µM.

For the compound `CCOC(=O)C(=Cc1cccc(Cl)c1)C(=O)OCC`, the GI50 was 1.74 µM and the TGI was 4.49 µM.

Turning to `C=CC(=O)N1CCC(C2CCNc3c(C(N)=O)c(-c4ccc(Oc5ccccc5)cc4)nn32)CC1` (stereo unspecified), the GI50 is 2.47 µM and the TGI was 15.7 µM.

On to `O=c1cc2oc3cc(O)c(O)cc3c(-c3ccccc3O)c-2cc1O`, for which the GI50 is 30.3 µM and the TGI is above 100 µM.

With `COc1ccccc1N1CCN(CCCn2c(=O)c3c(OC)nc(C)cc3c(=O)n2-c2ccccc2)CC1`, the GI50 was above 100 µM and the TGI is above 100 µM.

Consider `N#Cc1c(-c2ccc(F)cc2)c(-c2ccc(F)cc2)nn(CCO)c1=O`, for which the TGI is above 100 µM.

For the next assay, the system named is NCI/ADR-RES ovarian. As to the kind of experiment: NCI-60 cell line screen, 48 h.
As to `Nc1nccc2c1ccn2-c1ccc(NC(=O)c2ccc(N3CCOCC3)c(C(F)(F)F)c2)cc1`, the GI50 is 4.87 µM and the TGI was found to be 50.9 µM.

`Cc1[nH]c2ccccc2c1-c1cc(-c2cc(-c3c(C)[nH]c4ccccc34)on2)no1` gave a TGI above 100 µM.

For the compound `Cn1cnc([N+](=O)[O-])c1S(=O)(=O)Oc1ccccc1`, the GI50 was 21.7 µM and the TGI was above 65.8 µM.

`COc1cc(C2c3cc4c(cc3C(O)C(CO)C2CO)OCO4)cc(OC)c1OC` (stereo unspecified): the GI50 was 21.5 µM and the TGI is above 100 µM.

For the compound `CCCNC(=S)/N=C/c1c(O)c2ccccc2[nH]c1=O`, the TGI is above 100 µM.

On to `COC12C=C/C(=C(/C(=O)OCc3ccncc3)C(=O)CCCCCCCCC3(OC)C=C/C(=C(/C(=O)OCc4ccncc4)C(=O)CCCCCCCC1)O3)O2`, for which the GI50 was 0.774 µM and the TGI was 3.93 µM.

With `CCOc1ccc2nc(S/C(=C/C=C(C#N)C#N)c3ccc(C)cc3)sc2c1`, the GI50 is 24 µM and the TGI was 50.7 µM.

Take `Cc1csc(Nc2nc(-c3cccc(Br)c3)nc(C(Cl)(Cl)Cl)n2)n1`: the GI50 was 5.22 µM and the TGI is above 100 µM.

`C1CSCCSCCS1`: the TGI is above 100 µM.

For `CCN(CC)CCOc1ccc(/C=C2\CC3C4CC=C5C[C@@H](O)CC[C@]5(C)C4CC[C@]3(C)C2=O)cc1OC` (stereo partly specified), the GI50 was 16.2 µM and the TGI was determined as 56.1 µM.

As for `O=c1c2ccccc2sc2cccc(NCCCN3CCN(CCCNc4cccc5sc6ccccc6c(=O)c45)CC3)c12`, the TGI was above 100 µM.

As to `Cc1cn2c(/C=C3\C(=O)Nc4ccc(O)cc43)c(-c3ccc(Cl)cc3)nc2s1`, the GI50 is 21.5 µM and the TGI was above 100 µM.

`CC1=CC(=O)[C@@H](O)[C@]2(C)[C@H]3[C@@]4(O)OC[C@]35[C@H]([C@@H](C)[C@H]4O)[C@@H](O)C(=O)O[C@@H]5C[C@@H]12` yielded a TGI of 22.6 µM.

In turn, `Nc1nc(N)c(N=Nc2ccc([As](=O)(O)O)cc2)c(=O)[nH]1` displayed a TGI above 100 µM.

In the case of `CCOC(=O)C(=Cc1cccc(Cl)c1)C(=O)OCC`, the GI50 is 3.3 µM and the TGI was determined as 16.9 µM.

`C=CC(=O)N1CCC(C2CCNc3c(C(N)=O)c(-c4ccc(Oc5ccccc5)cc4)nn32)CC1` (stereo unspecified): the GI50 is 16.4 µM and the TGI amounted to 61 µM.

For `O=c1cc2oc3cc(O)c(O)cc3c(-c3ccccc3O)c-2cc1O`, the GI50 is 8.16 µM and the TGI came out at 42 µM.

For `COc1ccccc1N1CCN(CCCn2c(=O)c3c(OC)nc(C)cc3c(=O)n2-c2ccccc2)CC1`, the GI50 is above 100 µM and the TGI is above 100 µM.
